Literature values in PMC9516282, “Low prevalence of influenza A strains with resistance markers in Brazil during 2017–2019 seasons” (Frontiers in Public Health, 2022).

System: PA:E199G
Parameters: method as in PMID 30670144
Conditions: virus with PA:E199G substitution

In the case of COC(=O)OCOc1c2n(ccc1=O)N([C@@H]1c3ccccc3SCc3c1ccc(F)c3F)[C@@H]1COCCN1C2=O [BXM, baloxavir marboxil], the “RI (reduced inhibition) to BXM” value is given as 4.5 fold.
